US20080085333A1, “Composition Comprising Extract of Anemarrhena Asphodeloides and Aralia Elata,and Use Thereof” (MEDVILL CO., LTD., priority 2004, published 2008)
Converted amounts (≈) assume the structure as drawn.

Tests used:
[1] = system: PGE2 production in mouse macrophage cell line Raw264.7; experiment: Inhibition of LPS-induced PGE2 production in macrophages (ELISA); assay type: cell-based; details: Raw264.7, extract 1 hour before LPS, LPS 16 hours, read-out: IC50 for inhibition of PEG2 production
Description: The effect of the inventive water or organic solvent extract of Anemarrhena asphodeloides and Aralia elata on the production of PGE2 (prostaglandin E2) in mouse macrophages was examined to measure a concentration at which a 50% inhibitory effect is shown. The PGE2 is a substance synthesized by a COX-2 enzyme in macrophages permeated skin when infected with foreign substances or germs, and the degree of inflammation and the secreted amount of PGE2 are closely connected with each other. Namely, as inflammation becomes more severe, the secretion of PGE2 increases.
Meanwhile, when mouse macrophage cell line Raw264.7 (obtained from Korean Cell Line Bank) is cultured in RPMI medium while it is treated with LPS (lipopolysaccharide) for 16 hours, the production of PGE2 will increase. Thus, 1 hour before the macrophage cell line was treated with LPS, the macrophage cell line was treated with each of the water extract of Anemarrhena asphodeloides or water extract of Aralia elata prepared in Example 1, the water extract of Anemarrhena asphodeloides and Aralia elata prepared in Example 2 and the ethanol extract of Anemarrhena asphodeloides and Aralia elata prepared in Example 3, at varying concentrations of 5 mg/ml, 1 mg/ml, 500 μg/ml, 100 μg/ml, 50 μg/ml and 10 μg/ml, and then measured for the amount of PEG2 produced. […]

[2] = system: Propionibacterium acnes (KCTC 3314); experiment: Minimum inhibitory concentration in BHI broth, anaerobic culture, O.D. 660 nm; assay type: cell-based; details: 37° C., 48-72 hours
Protocol: To measure the antibacterial effect of the inventive extract against Propionibacterium acnes, […] of BHI (brain heart infusion) broth was inoculated with a culture of Propionibacterium acnes (KCTC 3314) at a concentration of 1% (v/v). Then, the inoculated broth was treated with each of the water extract of Anemarrhena asphodeloides or water extract of Aralia elata prepared in Example 1, the water extract of Anemarrhena asphodeloides and Aralia elata prepared in Example 2 and the ethanol extract of Anemarrhena asphodeloides and Aralia elata prepared in Example 3 at varying concentrations of 0.1%, 1%, 5%, 10% and 20%. A negative control group was treated with physiological saline. […] As positive control groups, erythromycin and triclosan, which are known to have antiacne effect, were used.

SMILES | IC50 [1] [µg/mL] | MIC [2]
CC(=O)Oc1ccccc1C(=O)O [aspirin] | 48 (≈ 266 µM) | 
CC[C@H]1OC(=O)[C@H](C)[C@@H](O[C@H]2C[C@@](C)(OC)[C@@H](O)[C@H](C)O2)[C@H](C)[C@@H](O[C@@H]2O[C@H](C)C[C@H](N(C)C)[C@H]2O)[C@](C)(O)C[C@@H](C)C(=O)[C@H](C)[C@@H](O)[C@]1(C)O [erythromycin] |  | 0.0005 ppm, v/v
Oc1cc(Cl)ccc1Oc1ccc(Cl)cc1Cl [triclosan] |  | 0.001 ppm, v/v
